Data set [1] deals with Dengue-2 (Strain New Guinea C). Put plainly: Viral yield assay against Dengue-2 in Vero cells. The class given is cell-based, Dengue virus. The following applies: Dengue virus, Vero cells. Put shortly:
(§1)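 Progeny virus from compound-treated Vero monolayers infected at an MOI of 0.1 is collected after 48 h at 37° C and titered on Vero cells. DMSO serves as control.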

Data set [2] concerns four serotypes of dengue. Put plainly: Yield assays against each of the four serotypes of dengue. The class given is cell-based, Dengue virus. The settings on record: all four serotypes. How it is done: Initially, the chemical structures of the hit compounds were examined for chemical tractability. […] Hits that passed this medicinal chemistry filter were evaluated for their potency. Compound potency was determined by evaluating inhibitory activity across a broad range of concentrations. Nonlinear regression was used to generate best-fit inhibition curves and to calculate the 50% effective concentration (EC50). The selectivity or specificity of a given compound is typically expressed as a ratio of its cytotoxicity to its biological effect. A cell proliferation assay is used to calculate a 50% cytotoxicity concentration (CC50); the ratio of this value to the EC50 is referred to as the therapeutic index (T.I.=CC50/EC50). Two types of assays have been used to determine cytotoxicity, both of which are standard methods for quantitating the reductase activity produced in metabolically active cells (22). […] Verification that these compounds act against each of the four serotypes of dengue was done with yield assays carried out at several drug concentrations, and the titer determined for each.
Compounds that were active in the primary screen were tested for activity in viral yield assays. […] The EC50 was calculated through ExcelFit. Activities against other serotypes of dengue virus were determined in a similar way.

The subject of data set [3] is DENV-1. Put plainly: Viral yield assay against DENV-1 in Vero cells. The following applies: Dengue virus, DENV1, viral yield assay. The class given is cell-based. Put shortly: as §1
Data set [4] has as its system DENV-3. Description: Viral yield assay against DENV-3 in Vero cells. Format: cell-based. The following applies: Dengue virus, DENV3, viral yield assay. Put shortly: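 Vero cells were infected with dengue-2 at MOI 0.1, treated with compound (DMSO control), and kept at 37° C. They were harvested 48 hours post infection and yield was titered on Vero cells. EC50 came from the yield curve, and the other serotypes were run in a similar way.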

The subject of data set [5] is DENV-4. Description: Viral yield assay against DENV-4 in Vero cells. The settings on record: Dengue virus, DENV4, viral yield assay. The class given is cell-based. Put shortly: as §1
For data set [6], the system named is dengue. The settings on record: mouse model; cited from earlier work.
Data set [7] has as its system dengue. The settings on record: cited from earlier work.
Where [8] appears, read: DENV2, viral yield assay, MOI 0.1, 48 hours post infection, read-out: Activity (EC50 in μM) DENV-2.

Where two headings read alike, the source gives them in different places. Bounds are passed on as bounds.

Take `Nc1c(C(=O)Nc2nnc(-c3ccccc3)s2)sc2nc3c(cc12)CCCCC3` [Compound 1, 3-Amino-6,7,8,9-tetrahydro-5H-1-thia-10-aza-cyclohepta[f]indene-2-carboxylic acid (5-phenyl-[1,3,4]thiadiazol-2-yl)-amide]: the EC50 in data set [1] (MOI 0.1, harvested 48 hours post infection, read-out: Activity (EC50 class) against Dengue-2 Virus in Vero cells) was below 5 µM. The “Activity against serotypes of dengue” value in data set [2] is reported as “activity against all four serotypes of dengue”.

Regarding `COc1ccc(-c2ccc3c(N)c(C(=O)Nc4ccc(Br)cc4F)sc3n2)cc1OC` [Compound 628, 3-amino-N-(4-bromo-2-fluoro-phenyl)-6-(3,4-dimethoxyphenyl)thieno[2,3-b] pyridine-2-carboxamide], the EC50 in data set [1] (setting [8]), in data set [3], in data set [4] and in data set [5] was below 5 µM each time.

Take `Nc1c(C(=O)Nc2ccc(F)c(F)c2)sc2nc(-c3cc(Cl)ccc3Cl)ccc12` [Compound 630, 3-amino-6-(2,5-dichlorophenyl)-N-(3,4-difluorophenyl)thieno[2,3-b]pyridine-2-carboxamide]: the concentration giving a half-maximal response (EC50) in data set [1] (setting [8]), in data set [3], in data set [4] and in data set [5] was below 5 µM each time.

Consider `Nc1c(C(=O)Nc2ccccc2)sc2nc(-c3ccc(Cl)cc3)ccc12` [Compound 631, 3-amino-6-(4-chlorophenyl)-N-phenyl-thieno[2,3-b]pyridine-2-carboxamide], for which the EC50 in data set [1] (setting [8]), in data set [3], in data set [4] and in data set [5] was below 5 µM each time.

Turning to `CCOc1ccc(NC(=O)c2sc3nc(-c4ccc(OC)c(OC)c4)ccc3c2N)cc1` [Compound 635, 3-amino-6-(3,4-dimethoxyphenyl)-N-(4-ethoxyphenyl)thieno[2,3-b]pyridine-2-carboxamide], the EC50 in data set [1] (setting [8]) was below 5 µM; in data set [3] it was below 5 µM; in data set [4], above 25 µM; in data set [5] it was below 5 µM.

For `Cc1ccc(NC(=O)c2sc3nc(-c4ccc(C)cc4)ccc3c2N)cc1` [Compound 636, 3-amino-N,6-bis(p-tolyl)thieno[2,3-b] pyridine-2-carboxamide], the EC50 in data set [1] (setting [8]), in data set [3], in data set [4] and in data set [5] was below 5 µM in each case.

For the molecule `CCOC(=O)c1ccc(NC(=O)c2sc3nc(-c4ccc(C)cc4)ccc3c2N)cc1` [Compound 638, ethyl 4-[[3-amino-6-(p-tolyl)thieno [2,3-b]pyridine-2-carbonyl]amino] benzoate], the EC50 in data set [1] (setting [8]), in data set [3], in data set [4] and in data set [5] was below 5 µM throughout.

On to `COC(=O)c1ccc(NC(=O)c2sc3nc(-c4ccc(Cl)cc4)ccc3c2N)cc1` [Compound 645, methyl 4-[[3-amino-6-(4-chlorophenyl)thieno[2,3-b]pyridine-2-carbonyl]amino]benzoate], for which the EC50 in data set [1] (setting [8]), in data set [3], in data set [4] and in data set [5] was below 5 µM throughout.

Take `Nc1c(C(=O)Nc2ccc(F)cc2)sc2nc(-c3ccc(Cl)cc3)ccc12` [Compound 646, 3-amino-6-(4-chlorophenyl)-N-(4-fluorophenyl)thieno[2,3-b]pyridine-2-carboxamide]: the EC50 in data set [1] (setting [8]), in data set [3], in data set [4] and in data set [5] was below 5 µM in each case.

Take `Cc1ccc(-c2ccc3c(N)c(C(=O)Nc4ccc(Cl)cc4)sc3n2)cc1` [Compound 648, 3-amino-N-(4-chlorophenyl)-6-(p-tolyl) thieno[2,3-b]pyridine-2-carboxamide]: the EC50 in data set [1] (setting [8]), in data set [3], in data set [4] and in data set [5] was below 5 µM throughout.

Take `Cc1ccc(-c2ccc3c(N)c(C(=O)Nc4ccccc4Cl)sc3n2)cc1` [Compound 650, 3-amino-N-(2-chlorophenyl)-6-(p-tolyl) thieno[2,3-b]pyridine-2-carboxamide]: the EC50 in data set [1] (setting [8]), in data set [3], in data set [4] and in data set [5] was below 5 µM each time.

Consider `COc1ccc(NC(=O)c2sc3nc(-c4ccc5c(c4)OCO5)ccc3c2N)c(OC)c1` [Compound 651, 3-amino-6-(1,3-benzodioxol-5-yl)-N-(2,4-dimethoxyphenyl)thieno[2,3-b]pyridine-2-carboxamide], for which the EC50 in data set [1] (setting [8]), in data set [3], in data set [4] and in data set [5] was below 5 µM in each case.

Turning to `COc1ccc(NC(=O)c2sc3nc(-c4ccc(Cl)cc4)ccc3c2N)c(OC)c1` [Compound 652, 3-amino-6-(4-chlorophenyl)-N-(2,4-dimethoxyyphenyl)thieno[2,3-b]pyridine-2-carboxamide], the EC50 in data set [1] (setting [8]), in data set [3], in data set [4] and in data set [5] was below 5 µM in each case.

As to `NC(=O)c1ncn([C@@H]2O[C@H](CO)[C@@H](O)[C@H]2O)n1` [ribavirin, Ribavirin], the Protection against dengue entry in data set [6] and in data set [7] (rhesus monkey model) was “did not show protection” throughout. Also, in data set [7] (animal model, literature), the Adverse effects induced result was “induced anemia and thrombocytosis”.

Values taken from patent US20170121344A1 (Siga Technologies, Inc., priority 2009, published 2017).
